What was measured:
[1] = biological target: T1, E. electricus acetylcholinesterase (Electrophorus electricus, UniProt O42275); test: Antibody modulation of Compound I inhibitory activity (residual acetylcholinesterase activity); assay type: biochemical; conditions: Compound I 4.5 × 10^-7 M
Description: (§1) A stock solution of Compound I (4.6×10^-3 molar in methanol) is diluted 200-fold with pH 7.0, 0.1 molar phosphate buffer containing 0.1% gelatin. Digoxin antibody is diluted in phosphate-gelatin buffers as indicated in Table I. Fifty microliters of phosphate-gelatin buffer, pH 7.0, containing the indicated concentration of antibody is placed in sample cups of a bichromatic spectrophotometer (model ABA-100® sold by Abbott Laboratories). To each of these 50 μl is added 1 μl of Compound I working solution making the final concentration 4.5×10^-7 molar. The antibody and Compound I (inhibitor) are allowed to incubate for 10-15 minutes at room temperature. Each sample receives 1 .parallel.l of working enzyme solution (9.5×10^-9 molar of E. electricus acetylcholinesterase in pH 7.0 phosphate-gelatin buffer). The final enzyme concentration is 1.9×10^-10 molar. The sample is diluted 1/26 with assay buffer containing acetylthiocholine, as substrate, 5×10^-4 molar and 5,5'-dithiobis-(2 -nitrobenzoic acid) (DTNB), 1.6×10^-4 molar in pH 7.0 phosphate-gelatin buffer. The change in absorbance with time is measured after 5 minutes in the bichromatic analyzer equipped with a 415/550 nm filter at 30° C.

acetylcholinesterase = test: Digoxin in serum assay with Compound I; assay type: biochemical, E. electricus
Description: as §1, with “C. The results are as follows:” for “C.”
Normal human serum containing digoxin concentrations listed in the table below are assayed by the procedure set out above.
N-Ethylmaleimide is used to block background sulfhydryl groups in human serum.
Thus, 1 μl of concentrated digoxin antibody in pH 7.0 phosphate-gelatin buffer containing 50 mM of N-methylorphenadrine is added to 50 μl of each serum standard then N-ethylmaleimide is added with mixing to each serum standard to make a working concentration of 1.6 mM. To the serum is also added 1 μl of a solution containing Compound I in pH 7.0, 0.1 molar phosphate-gelatin buffer. The final antibody concentration is 8.0×10^-7 molar and the final concentration of Compound I is 4.5×10^-7. These solutions are allowed to incubate for 12 minutes at which time acetylcholinesterase is added as before. After 26 minutes, the bichromatic spectrophotometer is started and a sample from each cup is diluted 26-fold with assay buffer containing 1.6×10^-5 molar DTNB, 5×10^-4 molar acetyl-β-methylthiocholine iodide, and 1 mM N-methyl-orphenadrine in pH 7.0, 0.1 molar phosphate-gelatin buffer. The final enzyme concentration is about 2×10^-11 molar and the cuvette temperature is 30° C. The change in absorbance after 5 minutes is as follows: […]

[2] = biological target: T1, E. electricus acetylcholinesterase; test: Specific modulation of Compound I inhibition by digoxin antibody and digoxin; assay type: biochemical
Description: as §1, with “C. The results are as follows:” for “C.”
(§2) The above experiment is repeated except digoxin at a concentration of 2.5×10^-5 molar is added to the sample cups. […] Fifty microliters of phosphate-gelatin buffer is added to a sample cup. The buffer solution either contains 2.5×10^-5 molar digoxin or is a control. To the sample cup is added a final concentration of 9×10^-7 molar digoxin antibody and 4.5×10^-7 molar Compound I. These solutions are allowed to incubate for 15 minutes and then enzyme is added and assayed according to the previous procedure.

[3] = biological target: T1, E. electricus acetylcholinesterase; test: Residual enzyme activity with Compound I, antibody and digoxin in buffer; assay type: biochemical; conditions: antibody 4.5×10^-7 molar, after 21 minutes
Description: as §1, with “C. The results are as follows:” for “C.”
as §2, with “procedure. The results are as follows:” for “procedure.”
Using the above procedures with the exception that the antibody final concentration in the sample is 4.5×10^-7 molar, various phosphate-gelatin buffer solutions are prepared with the indicated digoxin concentration. Each of these solutions are analyzed by adding antibody and Compound I to the solution as in the previous procedure, allowing a 2.5 minute incubation period to elapse and assaying for the residual enzyme activity after 21 minutes.

[4] = biological target: cholinesterase from E.electricus (Electrophorus electricus, UniProt O42275); test: Inhibition of cholinesterase from E.electricus; assay type: biochemical; conditions: 1 mM
Chain of cholinesterase from E.electricus (O42275 24-633): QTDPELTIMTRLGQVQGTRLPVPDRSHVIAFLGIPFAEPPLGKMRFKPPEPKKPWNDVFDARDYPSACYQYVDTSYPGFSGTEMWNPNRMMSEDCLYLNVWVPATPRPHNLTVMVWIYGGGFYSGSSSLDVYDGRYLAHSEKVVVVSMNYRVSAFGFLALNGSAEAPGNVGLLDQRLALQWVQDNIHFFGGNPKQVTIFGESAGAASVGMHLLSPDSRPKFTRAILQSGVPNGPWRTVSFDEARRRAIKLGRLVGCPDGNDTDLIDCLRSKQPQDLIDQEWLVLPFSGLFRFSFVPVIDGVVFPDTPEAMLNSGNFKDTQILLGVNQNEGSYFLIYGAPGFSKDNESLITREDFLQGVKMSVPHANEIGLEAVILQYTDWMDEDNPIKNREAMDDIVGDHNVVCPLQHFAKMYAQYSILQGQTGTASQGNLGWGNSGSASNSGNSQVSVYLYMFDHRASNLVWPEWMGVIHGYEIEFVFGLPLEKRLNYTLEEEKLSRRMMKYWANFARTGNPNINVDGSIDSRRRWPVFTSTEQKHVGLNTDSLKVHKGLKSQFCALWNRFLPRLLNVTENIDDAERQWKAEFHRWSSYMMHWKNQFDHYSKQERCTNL
Excerpt: (§3) N,N,N-Trimethyl-2-(o-methyl-α-phenylbenzyloxy) ethylammonium methylsulfate(N-methylorphenadrine) prepared by reacting N,N-dimethyl-2-(o-methyl-α-phenylbenzyloxy) ethylamine(orphenadrine)with dimethylsulfate.

[5] = test system: human serum cholinesterase; test: Inhibition of human serum cholinesterase; assay type: biochemical; conditions: 1 mM
Excerpt: as §3

T1 sequence (O42275 24-633): as above

CCOP(=O)(OCCCCCNC(=O)CCCCCNC(=O)OC1CCC2(C)C(CCC3C2CC(O)C2(C)C(C4=CC(=O)OC4)CCC32O)C1)Oc1ccc2ccc[n+](C)c2c1 (stereo not shown) [Compound I]
change in absorbance with time ([1]; antibody 9 × 10^-7 M, enzyme 1.9 × 10^-10 M, 10' incubation): 0.161 Ad/5 min.
change in absorbance with time ([1]; antibody 9 × 10^-7 M, enzyme 1.9 × 10^-10 M, 21' incubation): 0.137 Ad/5 min.
change in absorbance with time ([1]; antibody 9 × 10^-7 M, enzyme 1.9 × 10^-10 M, 43' incubation): 0.107 Ad/5 min.
change in absorbance with time ([1]; antibody 9 × 10^-8 M, enzyme 1.9 × 10^-10 M, 10' incubation): 0.089 Ad/5 min.
change in absorbance with time ([1]; antibody 9 × 10^-8 M, enzyme 1.9 × 10^-10 M, 21' incubation): 0.027 Ad/5 min.
change in absorbance with time ([1]; antibody 9 × 10^-8 M, enzyme 1.9 × 10^-10 M, 43' incubation): 0.005 Ad/5 min.
change in absorbance with time ([1]; no antibody, enzyme 1.9 × 10^-10 M (enzyme alone 0.220), 10' incubation): 0.045 Ad/5 min.
change in absorbance with time ([1]; no antibody, enzyme 1.9 × 10^-10 M (enzyme alone 0.221), 21' incubation): 0.015 Ad/5 min.
change in absorbance with time ([1]; no antibody, enzyme 1.9 × 10^-10 M (enzyme alone 0.222), 43' incubation): 0.003 Ad/5 min.
change in absorbance after 5 minutes (acetylcholinesterase; digoxin in serum 0.1 μM, antibody 8.0×10^-7 molar, Compound I 4.5×10^-7): 0.096 Ad/5 Min.
change in absorbance after 5 minutes (acetylcholinesterase; digoxin in serum 0.13 μM): 0.089 Ad/5 Min.
change in absorbance after 5 minutes (acetylcholinesterase; digoxin in serum 0.17 μM): 0.083 Ad/5 Min.
change in absorbance after 5 minutes (acetylcholinesterase; digoxin in serum 0.26 μM): 0.077 Ad/5 Min.
change in absorbance after 5 minutes (acetylcholinesterase; digoxin in serum 0.34 μM): 0.073 Ad/5 Min.
change in absorbance after 5 minutes (acetylcholinesterase; digoxin in serum 0.51 μM): 0.063 Ad/5 Min.
change in absorbance after 5 minutes (acetylcholinesterase; digoxin in serum 0.64 μM): 0.060 Ad/5 Min.
change in absorbance after 5 minutes (acetylcholinesterase; digoxin in serum 0.85 μM): 0.047 Ad/5 Min.
change in absorbance after 5 minutes (acetylcholinesterase; digoxin in serum 1.30 μM): 0.035 Ad/5 Min.
Ad/5 min. after enzyme-inhibitor incubation time ([2]; Enzyme + Compound I + Antibody (9×10^-7 molar), 0.3'): 0.160 Ad/5 min.
Ad/5 min. after enzyme-inhibitor incubation time ([2]; Enzyme + Compound I + Antibody (9×10^-7 molar), 11'): 0.129 Ad/5 min.
Ad/5 min. after enzyme-inhibitor incubation time ([2]; Enzyme + Compound I + Antibody (9×10^-7 molar), 19'): 0.115 Ad/5 min.
Ad/5 min. after enzyme-inhibitor incubation time ([2]; Enzyme + Compound I + Antibody + Digoxin (2.5×10^-5 molar), 0.3'): 0.160 Ad/5 min.
Ad/5 min. after enzyme-inhibitor incubation time ([2]; Enzyme + Compound I + Antibody + Digoxin (2.5×10^-5 molar), 11'): 0.068 Ad/5 min.
Ad/5 min. after enzyme-inhibitor incubation time ([2]; Enzyme + Compound I + Antibody + Digoxin (2.5×10^-5 molar), 19'): 0.038 Ad/5 min.
Ad/5 min. after enzyme-inhibitor incubation time ([2]; Enzyme + Compound I, 0.3' (enzyme only 0.174)): 0.162 Ad/5 min.
Ad/5 min. after enzyme-inhibitor incubation time ([2]; Enzyme + Compound I, 11' (enzyme only 0.169)): 0.037 Ad/5 min.
Ad/5 min. after enzyme-inhibitor incubation time ([2]; Enzyme + Compound I, 19' (enzyme only 0.167)): 0.013 Ad/5 min.
% Activity of Enzyme ([3]; digoxin 0.062 μM): 65%
% Activity of Enzyme ([3]; digoxin 0.125 μM): 65%
% Activity of Enzyme ([3]; digoxin 0.25 μM): 62%
% Activity of Enzyme ([3]; digoxin 0.5 μM): 57%
% Activity of Enzyme ([3]; digoxin 1.0 μM): 36%

Cc1ccccc1C(OCC[N+](C)(C)C)c1ccccc1 (stereo not drawn) [N-methylorphenadrine, N,N,N-Trimethyl-2-(o-methyl-α-phenylbenzyloxy) ethylammonium methylsulfate]
inhibition at 1000 µM [4]: 25%
inhibition of human serum cholinesterase [5]: greater than 99%

From patent US4273866A, “Ligand analog-irreversible enzyme inhibitor conjugates and methods for use” (priority 1979, dated 1981)
